The values that follow come from PMC9081086, “Stapling strategy enables improvement of antitumor activity and proteolytic stability of host-defense peptide hymenochirin-1B” (RSC Advances, 2018).

Positions of bridges follow the written chain, without caps; N, C: chain ends. Non-standard residues stand in square brackets, D forms with d. Residues, ends and D or L forms follow the SMILES beside them. R8 = C=CCCCCCC[C@@](C)(N)C(=O)O; S5 = C=CCCC[C@](C)(N)C(=O)O

In series [1] the test system is human normal kidney cell 293 T. Description: MTT toxicity against normal cells, 293T. The following applies: 96 h. The series is classed as cell-based. How it is done: (§1) Anti-tumor activity was evaluated by the standard MTT assay with a slight modification measuring the median inhibitory concentration (IC50) values.[35] HCT-116 cells, HepG2 cells and A549 cells were plated in triplicate wells into a 96-well plate at 5 × 10^3/well and cultured routinely for 24 h. Cells were incubated with increasing concentrations of hymenochirin-1B and its analogs (0.1–30 μM) and continued to culture with DMEM plus 10% FBS at 37 °C and 5% CO2. After being incubated for 96 h, the absorbance A value was determined by MTT at 540 nm. The untreated HCT-116 cells, HepG2 cells and A549 cells were used as control. Each experiment was performed in duplicate. The inhibitory rate was calculated according to the following formula: inhibitory rate = (a value of the control group − a value of the study group)/a value of the control group × 100%.
(§2) To further research the selectivity of these peptides towards cancer cells over normal cells. The growth-inhibitory activities of peptides were evaluated using the 3-(4,5-dimethylthiazol-2-yl)-2,5-diphenyltetrazolium bromide (MTT) assay against three normal cells,[35] namely, human normal liver cell LO-2, human normal Lung cell BEAS-2 and human normal kidney cell 293 T (Table S2 ^†). The experiments procedure was performed just same as growth inhibition of the peptides against tumor cells. […] It might be due to the higher averaged hydrophobicity produced by six or nine additional methylene and two olefinic carbons to the peptide to increase toxicity to human normal cells. This situation may be resolved through the addition of polar character and glycosylation into the sequence to decrease the averaged hydrophobicity to improve the selectivity of these peptides towards cancer cells over normal cells. These modifications of these peptides are under way, and the present study was focused on the improved anti-tumor activity of template peptide hymenochirin-1B.

Series [2] in a line: Circular dichroism, α-helicity. The format is physicochemical. The conditions noted are these: CD, TFE/water (1:1), 50 μM peptide, 25 °C, 1 mm cuvette, calculated from [θ]222. How it is done:
The linear and stapled peptides were dissolved in the trifluoroethanol (TFE) and water (1 : 1) to a final concentration of 50 μM, respectively. The CD spectra were obtained with 1 mm quartz cuvette on Jasco-815 spectropolarimeter at 25 °C. The measurement parameters were set up as follows: wavelength, 185–260 nm; step resolution, 0.5 nm; speed, 20 nm min^−1. All spectra were converted to a uniform scale of molar ellipticity after background subtraction. The curves were smoothed using standard parameters. The ellipticity in the acquired CD spectra was converted to the molar ellipticity using the equation: [θ] = θ/(10 × c × l), where, [θ] is the Molar ellipticity (deg cm^2. d mol^−1), θ is the observed ellipticity corrected for the buffer at a given wavelength (m deg), c is the molar concentration and l is the path length (cm). The helicity of each peptide was calculated as described in a literature based on the ellipticity of the peptide's spectrum at 222 nm and the number of amino acids in the peptide sequence.
Circular dichroism (CD) spectroscopy was used to investigate the secondary structures of the stapled and template peptides to probe structural changes induced by conformation constraint in a membrane-like milieu, including […] (TFE) and water (1 : 1). […] (Table 1, ESI ^†).

Series [3] concerns human normal Lung cell BEAS-2. Nature of the series: MTT toxicity against normal cells, BEAS-2B. The format is cell-based. The following applies: 96 h. How it is done:
as §1, §2

Series [4] deals with human normal liver cell LO-2. Description: MTT toxicity against normal cells, LO-2. The format is cell-based. The conditions noted are these: 96 h. The method, then:
as §1, §2

On to `CC[C@H](C)[C@H](N)C(=O)N[C@@H](CCCCN)C(=O)N[C@@H](CC(C)C)C(=O)N[C@@H](CO)C(=O)N[C@@]1(C)CCCC=CCCC[C@@](C)(C(=O)N[C@@H](CC(N)=O)C(=O)N[C@@H](CC(C)C)C(=O)N[C@@H](CCCCN)C(=O)N[C@@H](CCCCN)C(=O)N[C@H](C(=O)N[C@@H](CC(C)C)C(=O)N[C@@H](CCCCN)C(=O)NCC(=O)N[C@@H](C)C(=O)N[C@H](C(=O)N[C@@H](CCCCN)C(=O)NCC(=O)N[C@@H](C)C(=O)N[C@H](C(=O)N[C@@H](C)C(=O)N[C@H](C(=O)N[C@@H](C)C(=O)N[C@@H](CCCCN)C(=O)N[C@@H](CCSC)C(=O)N[C@H](C(N)=O)C(C)C)C(C)C)[C@@H](C)CC)[C@@H](C)CC)C(C)C)NC(=O)[C@H](CCCCN)NC(=O)[C@H]([C@@H](C)O)NC(=O)[C@H](CCC(=O)O)NC1=O` [H-1] (H-IKLS[S5]ETK[S5]NLKKVLKGAIKGAIAVAKMV-NH2; staple 5-9), for which the “IC50 (μM) 293T, toxicity against normal cells” value (shortened to “IC50 (μM) 293T, toxicity”) in series [1] stood at 5.82 ± 0.45 µM. Besides, the “Helicity (%)” value in series [2] is recorded as 49.0%. Also, the “IC50 (μM) BEAS-2B, toxicity against normal cells” value (from here on “IC50 (μM) BEAS-2B, toxicity”) in series [3] was determined as 9.61 ± 0.35 µM. Besides, the “IC50 (μM) LO-2, toxicity against normal cells” value (“IC50 (μM) LO-2, toxicity” below) in series [4] was found to be 7.80 ± 0.21 µM.
`CC[C@H](C)[C@H](N)C(=O)N[C@@H](CCCCN)C(=O)N[C@@H](CC(C)C)C(=O)N[C@@H](CO)C(=O)N1CCC[C@H]1C(=O)N[C@@H](CCC(=O)O)C(=O)N[C@H](C(=O)N[C@@H](CCCCN)C(=O)N[C@@H](CC(=O)O)C(=O)N[C@]1(C)CCCCCCC=CCCC[C@@](C)(C(=O)N[C@@H](C)C(=O)N[C@H](C(=O)N[C@@H](CCCCN)C(=O)NCC(=O)N[C@@H](C)C(=O)N[C@H](C(=O)N[C@@H](C)C(=O)N[C@H](C(=O)N[C@@H](C)C(=O)N[C@@H](CCCCN)C(=O)N[C@@H](CCSC)C(=O)N[C@H](C(N)=O)C(C)C)C(C)C)[C@@H](C)CC)[C@@H](C)CC)NC(=O)[C@H](CCCCN)NC(=O)[C@H](CC(C)C)NC(=O)[C@H](C(C)C)NC(=O)[C@H](CCCCN)NC(=O)[C@H](CCCCN)NC(=O)[C@H](CC(C)C)NC1=O)[C@@H](C)O` [H-3] (H-IKLSPETKD[R8]LKKVLK[S5]AIKGAIAVAKMV-NH2; staple 10-17): the “IC50 (μM) 293T, toxicity” value in series [1] came to 4.58 ± 0.34 µM. Moreover, the “Helicity (%)” value in series [2] is listed as 65.7%. In addition, the “IC50 (μM) BEAS-2B, toxicity” value in series [3] came out at 7.95 ± 0.36 µM. The “IC50 (μM) LO-2, toxicity” value in series [4] amounted to 7.61 ± 0.43 µM.
As to `CC[C@H](C)[C@H](N)C(=O)N[C@@H](CCCCN)C(=O)N[C@@H](CC(C)C)C(=O)N[C@@H](CO)C(=O)N1CCC[C@H]1C(=O)N[C@@H](CCC(=O)O)C(=O)N[C@H](C(=O)N[C@@H](CCCCN)C(=O)N[C@@H](CC(=O)O)C(=O)N[C@@H](CC(N)=O)C(=O)N[C@@H](CC(C)C)C(=O)N[C@@H](CCCCN)C(=O)N[C@@H](CCCCN)C(=O)N[C@H](C(=O)N[C@@H](CC(C)C)C(=O)N[C@@H](CCCCN)C(=O)N[C@]1(C)CCCCCCC=CCCC[C@@](C)(C(=O)N[C@H](C(=O)N[C@@H](C)C(=O)N[C@@H](CCCCN)C(=O)N[C@@H](CCSC)C(=O)N[C@H](C(N)=O)C(C)C)C(C)C)NC(=O)[C@H]([C@@H](C)CC)NC(=O)[C@H](C)NC(=O)CNC(=O)[C@H](CCCCN)NC(=O)[C@H]([C@@H](C)CC)NC(=O)[C@H](C)NC1=O)C(C)C)[C@@H](C)O` [H-4] (H-IKLSPETKDNLKKVLK[R8]AIKGAI[S5]VAKMV-NH2; staple 17-24), in series [2], the “Helicity (%)” value was 66.3%.
Regarding `CC[C@H](C)[C@H](N)C(=O)N[C@@H](CCCCN)C(=O)N[C@@H](CC(C)C)C(=O)N[C@@H](CO)C(=O)N1CCC[C@H]1C(=O)N[C@@H](CCC(=O)O)C(=O)N[C@H](C(=O)N[C@@H](CCCCN)C(=O)N[C@@H](CC(=O)O)C(=O)N[C@@H](CC(N)=O)C(=O)N[C@@H](CC(C)C)C(=O)N[C@@H](CCCCN)C(=O)N[C@@H](CCCCN)C(=O)N[C@H](C(=O)N[C@@H](CC(C)C)C(=O)N[C@@H](CCCCN)C(=O)NCC(=O)N[C@@H](C)C(=O)N[C@H](C(=O)N[C@]1(C)CCCCCCC=CCCC[C@@](C)(C(=O)N[C@@H](CCSC)C(=O)N[C@H](C(N)=O)C(C)C)NC(=O)[C@H](C)NC(=O)[C@H](C(C)C)NC(=O)[C@H](C)NC(=O)[C@H]([C@@H](C)CC)NC(=O)[C@H](C)NC(=O)CNC1=O)[C@@H](C)CC)C(C)C)[C@@H](C)O` [H-6] (H-IKLSPETKDNLKKVLKGAI[R8]GAIAVA[S5]MV-NH2; staple 20-27), the “IC50 (μM) 293T, toxicity” value in series [1] turned out to be 60.11 ± 0.35 µM. For the same molecule, the “Helicity (%)” value in series [2] is 64.9%. Also, the “IC50 (μM) BEAS-2B, toxicity” value in series [3] amounted to 46.58 ± 0.42 µM. Also, the “IC50 (μM) LO-2, toxicity” value in series [4] is 49.77 ± 0.22 µM.
Regarding `CC[C@H](C)[C@H](N)C(=O)N[C@@H](CCCCN)C(=O)N[C@@H](CC(C)C)C(=O)N[C@@H](CO)C(=O)N1CCC[C@H]1C(=O)N[C@@H](CCC(=O)O)C(=O)N[C@H](C(=O)N[C@@H](CCCCN)C(=O)N[C@@H](CC(=O)O)C(=O)N[C@@H](CC(N)=O)C(=O)N[C@@H](CC(C)C)C(=O)N[C@@H](CCCCN)C(=O)N[C@@H](CCCCN)C(=O)N[C@H](C(=O)N[C@@H](CC(C)C)C(=O)N[C@@H](CCCCN)C(=O)NCC(=O)N[C@@H](C)C(=O)N[C@H](C(=O)N[C@@H](CCCCN)C(=O)NCC(=O)N[C@@]1(C)CCCC=CCCC[C@@](C)(C(=O)N[C@@H](CCCCN)C(=O)N[C@@H](CCSC)C(=O)N[C@H](C(N)=O)C(C)C)NC(=O)[C@H](C(C)C)NC(=O)[C@H](C)NC(=O)[C@H]([C@@H](C)CC)NC1=O)[C@@H](C)CC)C(C)C)[C@@H](C)O` [H-7] (H-IKLSPETKDNLKKVLKGAIKG[S5]IAV[S5]KMV-NH2; staple 22-26), the “IC50 (μM) 293T, toxicity” value in series [1] worked out at 7.25 ± 0.26 µM. In addition, the “Helicity (%)” value in series [2] is 65.9%. Besides, the “IC50 (μM) BEAS-2B, toxicity” value in series [3] came to 7.50 ± 0.32 µM. Besides, the “IC50 (μM) LO-2, toxicity” value in series [4] was 6.52 ± 0.32 µM.
Regarding `CC[C@H](C)[C@H](N)C(=O)N[C@@H](CCCCN)C(=O)N[C@@H](CC(C)C)C(=O)N[C@@H](CO)C(=O)N1CCC[C@H]1C(=O)N[C@@H](CCC(=O)O)C(=O)N[C@H](C(=O)N[C@@H](CCCCN)C(=O)N[C@@H](CC(=O)O)C(=O)N[C@@H](CC(N)=O)C(=O)N[C@@H](CC(C)C)C(=O)N[C@@H](CCCCN)C(=O)N[C@@H](CCCCN)C(=O)N[C@H](C(=O)N[C@@H](CC(C)C)C(=O)N[C@@H](CCCCN)C(=O)NCC(=O)N[C@@H](C)C(=O)N[C@H](C(=O)N[C@@]1(C)CCCC=CCCC[C@@](C)(C(=O)N[C@H](C(=O)N[C@@H](C)C(=O)N[C@@H](CCCCN)C(=O)N[C@@H](CCSC)C(=O)N[C@H](C(N)=O)C(C)C)C(C)C)NC(=O)[C@H]([C@@H](C)CC)NC(=O)[C@H](C)NC(=O)CNC1=O)[C@@H](C)CC)C(C)C)[C@@H](C)O` [H-8] (H-IKLSPETKDNLKKVLKGAI[S5]GAI[S5]VAKMV-NH2; staple 20-24), the “IC50 (μM) 293T, toxicity” value in series [1] was 15.58 ± 0.36 µM. In addition, in series [2], the “Helicity (%)” value was 60.5%. Besides, in series [3], the “IC50 (μM) BEAS-2B, toxicity” value came to 12.82 ± 0.25 µM. In addition, the “IC50 (μM) LO-2, toxicity” value in series [4] stood at 24.82 ± 0.44 µM.
For `CC[C@H](C)[C@H](N)C(=O)N[C@@H](CCCCN)C(=O)N[C@@H](CC(C)C)C(=O)N[C@@H](CO)C(=O)N1CCC[C@H]1C(=O)N[C@@H](CCC(=O)O)C(=O)N[C@H](C(=O)N[C@@H](CCCCN)C(=O)N[C@@H](CC(=O)O)C(=O)N[C@@H](CC(N)=O)C(=O)N[C@@H](CC(C)C)C(=O)N[C@@H](CCCCN)C(=O)N[C@@H](CCCCN)C(=O)N[C@H](C(=O)N[C@@H](CC(C)C)C(=O)N[C@@H](CCCCN)C(=O)N[C@@]1(C)CCCC=CCCC[C@@](C)(C(=O)N[C@@H](C)C(=O)N[C@H](C(=O)N[C@@H](C)C(=O)N[C@H](C(=O)N[C@@H](C)C(=O)N[C@@H](CCCCN)C(=O)N[C@@H](CCSC)C(=O)N[C@H](C(N)=O)C(C)C)C(C)C)[C@@H](C)CC)NC(=O)[C@H](CCCCN)NC(=O)[C@H]([C@@H](C)CC)NC(=O)[C@H](C)NC1=O)C(C)C)[C@@H](C)O` [H-9] (H-IKLSPETKDNLKKVLK[S5]AIK[S5]AIAVAKMV-NH2; staple 17-21), the “IC50 (μM) 293T, toxicity” value in series [1] is 8.66 ± 0.23 µM. Moreover, in series [3], the “IC50 (μM) BEAS-2B, toxicity” value worked out at 7.72 ± 0.36 µM. The “IC50 (μM) LO-2, toxicity” value in series [4] came to 8.56 ± 0.32 µM.
